Non-standard residues stand in square brackets, D forms with d. Residues, ends and D or L forms follow the SMILES beside them. *: point of attachment. Dab = NCC[C@H](N)C(=O)O; NHBn = c1ccc(CN*)cc1; βAla = NCCC(=O)O
Assays:
[1] = test system: mimic wrinkles; details: cited from earlier work
[2] = target: T1, muscle-type nicotinic acetylcholine receptor (α1, β1, δ and ε-subunits) (Homo sapiens, UniProt P02708+Q04844+Q07001); test: Inhibition of acetylcholine-induced current through muscle-type nAChR expressed in Xenopus laevis oocytes (two-electrode voltage clamp); format: cell-based; details: for inhibiting activity towards the muscle receptor, retrosequences compared with initial Az3 and [Tyr2]Az3: 1 mM
T1 construct: expressed in transfected cells; host or cells: Xenopus laevis oocytes (nuclear injection of plasmids, CMV promoter)
T1 sequence (P02708 21-457): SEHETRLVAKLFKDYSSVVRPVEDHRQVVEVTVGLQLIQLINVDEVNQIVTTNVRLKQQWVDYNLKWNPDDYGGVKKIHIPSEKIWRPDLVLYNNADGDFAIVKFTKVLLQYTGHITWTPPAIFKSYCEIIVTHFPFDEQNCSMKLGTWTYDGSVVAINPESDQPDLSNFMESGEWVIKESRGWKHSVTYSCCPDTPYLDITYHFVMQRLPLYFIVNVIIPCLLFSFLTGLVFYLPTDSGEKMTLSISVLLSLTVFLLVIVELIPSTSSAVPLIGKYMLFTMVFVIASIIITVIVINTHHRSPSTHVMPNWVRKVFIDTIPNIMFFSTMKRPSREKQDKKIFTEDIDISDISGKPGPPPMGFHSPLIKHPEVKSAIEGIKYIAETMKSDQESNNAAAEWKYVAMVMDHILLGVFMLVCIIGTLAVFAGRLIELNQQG
T1 sequence (Q04844 21-493): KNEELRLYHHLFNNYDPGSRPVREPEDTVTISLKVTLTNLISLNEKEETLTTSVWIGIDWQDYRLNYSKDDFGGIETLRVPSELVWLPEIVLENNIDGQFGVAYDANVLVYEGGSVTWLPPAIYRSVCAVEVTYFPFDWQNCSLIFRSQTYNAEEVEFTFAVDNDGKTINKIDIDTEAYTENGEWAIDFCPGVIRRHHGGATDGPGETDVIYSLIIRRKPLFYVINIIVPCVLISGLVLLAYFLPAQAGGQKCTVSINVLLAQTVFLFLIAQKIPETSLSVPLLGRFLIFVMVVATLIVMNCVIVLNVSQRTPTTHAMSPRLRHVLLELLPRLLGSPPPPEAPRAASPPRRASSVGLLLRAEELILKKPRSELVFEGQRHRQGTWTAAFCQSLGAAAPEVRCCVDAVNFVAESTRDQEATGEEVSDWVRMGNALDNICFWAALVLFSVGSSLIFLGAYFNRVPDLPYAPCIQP
T1 sequence (P11230 24-501, further chain): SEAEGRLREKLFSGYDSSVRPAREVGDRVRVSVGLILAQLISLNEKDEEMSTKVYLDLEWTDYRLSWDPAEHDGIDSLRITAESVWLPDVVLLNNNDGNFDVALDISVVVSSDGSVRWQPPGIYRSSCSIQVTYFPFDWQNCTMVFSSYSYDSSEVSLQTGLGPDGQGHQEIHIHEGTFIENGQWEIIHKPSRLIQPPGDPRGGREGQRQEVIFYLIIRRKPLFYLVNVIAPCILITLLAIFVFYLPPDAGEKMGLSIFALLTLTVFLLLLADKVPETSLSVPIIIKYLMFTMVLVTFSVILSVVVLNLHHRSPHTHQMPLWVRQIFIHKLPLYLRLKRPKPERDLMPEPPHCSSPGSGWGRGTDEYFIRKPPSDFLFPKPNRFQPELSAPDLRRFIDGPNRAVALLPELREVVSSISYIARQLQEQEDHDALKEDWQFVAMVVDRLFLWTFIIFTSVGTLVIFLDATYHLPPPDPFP
T1 sequence (Q07001 22-517): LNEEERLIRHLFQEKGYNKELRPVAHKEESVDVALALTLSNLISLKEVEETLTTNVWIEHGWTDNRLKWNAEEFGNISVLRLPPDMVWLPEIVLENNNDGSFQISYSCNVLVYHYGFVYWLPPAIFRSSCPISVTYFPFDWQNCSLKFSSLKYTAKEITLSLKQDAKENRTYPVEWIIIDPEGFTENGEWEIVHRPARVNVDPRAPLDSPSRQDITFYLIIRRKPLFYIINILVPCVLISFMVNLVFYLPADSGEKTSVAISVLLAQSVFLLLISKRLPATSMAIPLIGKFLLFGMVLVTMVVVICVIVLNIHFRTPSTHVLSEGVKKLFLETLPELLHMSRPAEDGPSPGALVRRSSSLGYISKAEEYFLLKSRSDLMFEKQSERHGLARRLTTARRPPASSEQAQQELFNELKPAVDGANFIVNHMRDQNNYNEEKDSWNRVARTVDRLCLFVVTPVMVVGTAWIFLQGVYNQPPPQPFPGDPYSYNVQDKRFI

[3] = test system: male Balb mice; test: Acute toxicity in mice (intraperitoneal and per os); format: in vivo; details: for acute toxicity after intraperitoneal administration: male Balb mice, 1, 3, 10 and 30 mg/kg i.p.; for acute toxicity per os (administration into the stomach): male Balb mice, 2.5, 10, 40, 160 mg/kg per os
Protocol: Estimation of acute toxicity (LD50) after intraperitoneal administration of peptide H-Trp-Trp-Pro-Lys-Pro-OH (SEQ ID NO: 1) was carried out on 40 male Balb mice weighting 20-23 g, separated into five equal groups. Mice were intraperitoneally injected with the peptide at doses of 1 mg/kg, 3 mg/kg, 10 mg/kg and 30 mg/kg in 0.2 ml sterile 0.9% NaCl solution. Control animals were injected with same volume of 0.9% NaCl.
Investigation of acute toxicity (LD50 per os) after administration of the peptide directly into a stomach by a special catheter was conducted on 40 male Balb mice weighting 20-23 g. Animals were randomly divided into 5 groups. The drug was applied at doses 2.5 mg/kg, 10 mg/kg, 40 mg/kg, 160 mg/kg in 0.2 ml sterile solution of 0.9%. Control animals were injected with the same volume of 0.9% NaCl.

[4] = cream containing 5% Vialox, 28-day application

Q: For H-Tyr-D-Ala-Gly-Phe-Leu-OH [Leuphasyl], which “enhancement of argireline effect” value ([1]; Leuphasyl in combination with argireline) is on record?
A: The value was 1.5 fold.

Q: For “Ac-Glu-Glu-Met-Gln-Arg-Arg-NH2 (Ac-EEMQRR-NH2) [argireline, cosmetic hexapeptide repeating a fragment of SNAP 25]”, which “decrease in the depth of mimic wrinkles” value ([1]; cream containing 10% argireline, topical 30-day use, volunteers) is on record?
A: The value was 30%.

Q: Which IC50 [2] does the source give for “H-WYPKP-NH2 [SEQ ID NO: 42, H-Trp-Tyr-Pro-Lys-Pro-NH2]” here?
A: The IC50 was 23 µM.

Q: And the “times more functionally active than commercial analogue Syn-Ake” value ([2]; ratio of IC50 values)?
A: Its value is “eight”.

Q: With “H-Gly-Pro-Arg-Pro-Ala-NH2 (H-GPRPA-NH2) [Vialox]” as the compound, how does the “reduction of skin roughness” value [1, 4] read?
A: The value was “up to 47%”.

Q: What about the “reduction of wrinkle size” value [1, 4] of the same compound?
A: Its value is “up to 49%”.

Q: Which “inhibition of acetylcholine induced currents, comparison of overlapping pentapeptide fragments of azemiopsin” value ([2]; 150 μg/ml (FIG. 2)) does the source give for “H-WWPKP-OH [SEQ ID NO: 1, H-Trp-Trp-Pro-Lys-Pro-OH]” here?
A: Its value is “most active”.

Q: And the “acute toxicity after intraperitoneal administration” value [3]?
A: The value was “did not reveal any toxic effects”.

Q: And the “acute toxicity after intraperitoneal administration” value ([3]; listed as SEQ ID NO:1)?
A: The value was “does not exhibit toxicity”.

Q: What about the “acute toxicity per os (administration into the stomach)” value [3] of the same compound?
A: Its value is “no toxic effect was observed”.

Q: What about the “acute toxicity per os (administration into the stomach)” value ([3]; listed as SEQ ID NO:1) of the same compound?
A: Its value is “does not exhibit toxicity”.

Q: Which “inhibiting activity towards the muscle receptor, retrosequences compared with initial Az3 and [Tyr2]Az3” value [2] does the source give for PKPYW here?
A: Its value is “reduced”.

Q: Which results are given for NCCC(=O)N1CCC[C@H]1C(=O)N[C@@H](CCN)C(=O)NCc1ccccc1 [Syn-Ake, H-β-Ala-Pro-Dab-NHBzl] (H-[βAla]-Pro-[Dab]-NHBn)?
A: IC50 [2]: 180 µM; decrease of depth of wrinkles on foreheads ([1]; cream containing 4% Syn-Ake, 28-day application, volunteers): up to 52%

Q: Which “blockage of the muscle receptor activity” value ([2]; 50 μM, 20 μM acetylcholine (FIG. 1)) does the source give for “DNWWPKPPHQGPRPPRPRPKP [azemiopsin, reference compound]” here?
A: The value was “Complete blockage”.

Q: For PKPWW, which “inhibiting activity towards the muscle receptor, retrosequences compared with initial Az3 and [Tyr2]Az3” value [2] is on record?
A: The value was “reduced”.

From patent US9550808B2, “Peptide inhibitors of nicotinic acetylcholine receptor” (LIMITED LIABILITY COMPANY SYNEURO, priority 2013, dated 2017)
